Laboratory results taken from paper PMC9571594, “Development of Semisynthetic Apoptosis-Inducing Agents Based on Natural Phenolic Acids Scaffold: Design, Synthesis and In-Vitro Biological Evaluation” (Molecules, 2022).
Values joined by “and” are separate entries in the source; they are usually repeats but may differ in a detail not shown here. Equal entries are not always repeated. Where two headings read alike, the source gives them in different places.

Tests used:
Format in all cases: cell-based
Caco-2 cancer cell line = experiment: MTT cell viability assay, Caco-2; conditions: 48 h; for IC50: MTT, average of triplicates, semi-synthesized compounds (Table 3), read-out: IC50 (μM) on Caco-2 cancer cell line
Method: MCF-7 cells (Human breast adenocarcinoma), HepG2 (human hepatocellular carcinoma), A549 (human lung adenocarcinoma), Caco-2 (colon carcinoma), PANC-1 (human pancreatic cancer), and Vero cells (derived from normal kidney cells) were supplied by (Holding Company for Biological Products and Vaccines VACSERA; Giza, Egypt). The cells were cultured in PRMI 1640 medium (Lonza, Switzerland) supplemented with 10% fetal bovine serum (Gibco), 1% penicillin and 1% streptomycin (Sigma Aldrich, Saint Louis, MO, USA) at 37 °C under an atmosphere of 5% CO2 and 95% air.
The effect of parent compounds and their derivatives were assessed by (3-(4,5-dimethylthiazol-2-yl)-2,5diphenyl-tetrazolium bromide) MTT assay. […] After a merged sheet of cells developed, the growth media was decanted from the 96-well microtiter and refilled with different concentrations of compounds (µg/mL), and the plate was incubated at 37 °C for 48 h to minimize exposure to the dissolving agent (Supporting Information).
MTT solution (BIO BASIC CANADA INC) was prepared [5 mg/mL in phosphate buffered saline (PBS)], added to each well and incubated for 4 h, then after removing the media, 200 μL of DMSO was added to each well to solubilize the formazan crystals and the optical density of the formazan product was measured at 560 nm using microplate reader (mindray, MR-96A). The results were calculated as the mean of the three independent experiments. […]
Determination of sample cytotoxicity on cells (MTT protocol) […]
well) and incubated at 37°C for 24 hours to develop a complete monolayer sheet.
2- Growth medium was decanted from 96 well micro titer plates after confluent sheet of cells were formed, cell monolayer was washed twice with wash media.
3- two-fold dilutions of tested sample was made in RPMI medium with 2% serum […]
4- 0.1 ml of each dilution was tested in different wells leaving 3 wells as control, receiving only maintenance medium.
5- Plate was incubated at 37°C and examined. Cells were checked for any physical signs of toxicity, e.g. partial or complete loss of the monolayer, rounding, shrinkage, […]
6- MTT solution was prepared (5mg/ml in PBS) (BIO BASIC CANADA INC).
8- 20ul MTT solution were added to each well. Place on a shaking table, 150rpm for 5 minutes, to thoroughly mix the MTT into the media.
10) Dump off the media. (dry plate on paper towels to remove residue if necessary. […] 9 ش - ايلعلا هبضهلا - مطقملا / ىسيئرلا لمعملا […]

Caco-2 cells [1] = experiment: Cell-cycle analysis by flow cytometry; conditions: for %G0–G1 / %G2/M / %S / %Pre-G1: Caco-2 cells; for %G0–G1 / %G2/M / %S: cell-cycle distribution after treatment; for %Pre-G1: Pre-G1 = apoptotic population
Method: The potential candidates with anti-tumor effect on the Caco-2 cell line along with a high SI were chosen for cell-cycle analysis. The cell-cycle distribution and cell death were analyzed using Annexin V-FITC/PI staining and flow cytometry (Table 4, Figure 4).
In order to determine the percentage of viable, apoptotic and necrotic cells after treatment with our compounds, double-staining with fluorescein isothiocyanate (FITC) and PI was performed. Annexin V-FITC Apoptosis Detection Kit (BioVision, CA, USA) was used. Briefly, cultured Caco-2 were treated with the tested compounds or DMSO for 24h. Cells were then collected by centrifugation at 2000 rpm for 5 min, and the pellet was washed with PBS then centrifuged again at 2000 rpm for 5 min then resuspended in 500μL of the kit’s binding buffer before adding the Annexin V-FITC and PI. The cells were then incubated at room temperature in the dark for 5 min. […]
Assay : Cell Cycle Analysis
Kit used : ab139418_Propidium Iodide Flow Cytometry Kit/BD
Assay samples :Cell culture
(§1) Cpd. No. Cpd. No. Cpd. No. Cpd. No.

Caco-2 cells [2] = experiment: Annexin V-FITC/PI apoptosis assay by flow cytometry; parameters: key: % of cells; conditions: annexin-V FITC/PI staining, 24h
Method: In order to determine the percentage of viable, apoptotic and necrotic cells after treatment with our compounds, double-staining with fluorescein isothiocyanate (FITC) and PI was performed. Annexin V-FITC Apoptosis Detection Kit (BioVision, CA, USA) was used. Briefly, cultured Caco-2 were treated with the tested compounds or DMSO for 24h. Cells were then collected by centrifugation at 2000 rpm for 5 min, and the pellet was washed with PBS then centrifuged again at 2000 rpm for 5 min then resuspended in 500μL of the kit’s binding buffer before adding the Annexin V-FITC and PI. The cells were then incubated at room temperature in the dark for 5 min. Annexin V-FITC binding was measured using FACS Calibur flow cytometer (BD biosciences, USA) (Ex = 488 nm, Em = 533 nm, FL1 filter for annexin and FL2 filter for PI).

MMP-2 = experiment: RT-qPCR gene expression of MMP-2; conditions: for MMP2 Fold Change: Caco2, relative to cont.Caco2 = 1
Method: (§2) The treated cells were harvested and the total RNA was extracted using RNeasy Mini Kit (Qiagen) according to the manufacturer’s instruction. The primers of the required genes (Table 6) were used for SYBR Green qRT-PCR using a one-step RT-PCR kit with SYBR Green (Bio-Rad). qRT-PCR was performed on Rotor Gene Q (Qiagen). […] Rotor-Gene 6000 Series Software was used for data analysis. and their HGNC ID was added (Table 6)
(§3) Researcher : Dr/Noura email: mob.
(§4) Reader : Rotorgene RT- PCR system
(§5) Kit used : Qiagen RNA extraction/BioRad syber green PCR MMX
(§6) Assay samples :Cell culture Lysate
as §1

MMP-9 = experiment: RT-qPCR gene expression of MMP-9; conditions: for MMP9 Fold Change: Caco2, relative to cont.Caco2 = 1
Method: as §2, §3, §4, §5, §6, §1

Compound | IC50 (Caco-2 cancer cell line; Homo sapiens, Caco-2) [µM] | %G0–G1 (Caco-2 cells [1]) [%] | %G2/M (Caco-2 cells [1]) [%] | %S (Caco-2 cells [1]) [%] | %Pre-G1 (Caco-2 cells [1]) | Apoptosis Total (Caco-2 cells [2]) | Early Apoptosis (Caco-2 cells [2]) | Necrosis (Caco-2 cells [2]) | further results
O=C(/C=C/c1ccc(O)c(O)c1)N1CCN(c2ccccc2)CC1 [Compound 3, (E)-3-(3,4-Dihydroxyphenyl)-1-(4-phenylpiperazin-1-yl)prop-2-en-1-one] | 80 | – | – | – | – | – | – | – | –
O=C(/C=C/c1ccc(O)c(O)c1)Nc1ccc(O)cc1 [Compound 4, (E)-3-(3,4-Dihydroxyphenyl)-N-(4-hydroxyphenyl)acrylamide] | 70 | – | – | – | – | – | – | – | –
Cc1ccc(NC(=O)/C=C/c2ccc(O)c(O)c2)cc1 [Compound 5, (E)-3-(3,4-Dihydroxyphenyl)-N-(p-tolyl)acrylamide] | 60 | 41.52 ± 2.61 | 26.86 ± 2.75 | 31.62 ± 1.79 | 7.56 ± 0.39% | 7.56 | 2.59 | 1.04 | %G0–G1 (Caco-2 cells [1]; listed as CA3): 41.52%; %G2/M (Caco-2 cells [1]; listed as CA3): 26.86%; %S (Caco-2 cells [1]; listed as CA3): 31.62%; %Pre-G1 (Caco-2 cells [1]; listed as CA3): 7.56%; Late Apoptosis (Caco-2 cells [2]): 3.93
O=C(/C=C/c1ccc(O)c(O)c1)NC1CCCCC1 [Compound 6, (E)-N-Cyclohexyl-3-(3,4-dihydroxyphenyl)acrylamide] | 50 | – | – | – | – | – | – | – | –
O=C(/C=C/c1ccc(O)c(O)c1)Nc1ccc(Br)cc1 [Compound 7, (E)-N-(4-Bromophenyl)-3-(3,4-dihydroxyphenyl)acrylamide] | 20 | 28.68 ± 1.64 | 44.91 ± 3.42 | 26.41 ± 2.15 | 18.26% and 18.26 ± 1.42% | 18.26 | 4.75 | 2.14 | %G0–G1 (Caco-2 cells [1]; listed as CA6): 28.68%; %G2/M (Caco-2 cells [1]; listed as CA6): 44.91%; %S (Caco-2 cells [1]; listed as CA6): 26.41%; MMP2 Fold Change (MMP-2): 0.16±0.004 Fold Change; expression of MMP2 (in words) (MMP-2; Figures 8 and 9): greatest inhibition; MMP9 Fold Change (MMP-9): 0.29±0.006 Fold Change; expression of MMP9 (in words) (MMP-9; Figures 8 and 9): greatest inhibition
COc1ccc(NC(=O)/C=C/c2ccc(O)c(O)c2)cc1 [Compound 8, (E)-N-(4-Methoxyphenyl)-3-(3,4-dihydroxyphenyl)acrylamide] | 80 | – | – | – | – | – | – | – | –
O=C(/C=C/c1ccc(O)c(O)c1)NCc1ccccc1 [Compound 9, (E)-N-Benzyl-3-(3,4-dihydroxyphenyl)acrylamide] | 30 | 38.51 ± 1.95 | 30.05 ± 2.59 | 31.44 ± 2.87 | 9.62 ± 0.37% | 9.62 | 3.72 | 1.36 | %G0–G1 (Caco-2 cells [1]; listed as CA9): 38.51%; %G2/M (Caco-2 cells [1]; listed as CA9): 30.05%; %S (Caco-2 cells [1]; listed as CA9): 31.44%; %Pre-G1 (Caco-2 cells [1]; listed as CA9): 9.62%; Late Apoptosis (Caco-2 cells [2]): 4.54
O=C(/C=C/c1ccc(O)c(O)c1)Nc1ccc(Cl)cc1 [Compound 10, (E)-N-(4-Chlorophenyl)-3-(3,4-dihydroxyphenyl)acrylamide] | 9 | 29.75 ± 1.73 | 41.98 ± 2.18 | 28.27 ± 1.99 | 23.42% and 23.42 ± 2.12% | 23.42 | 7.59 | 3.14 | %G0–G1 (Caco-2 cells [1]; listed as CA11): 29.75%; %G2/M (Caco-2 cells [1]; listed as CA11): 41.98%; %S (Caco-2 cells [1]; listed as CA11): 28.27%
Nc1ccccc1NC(=O)/C=C/c1ccc(O)c(O)c1 [Compound 11, (E)-N-(2-Aminophenyl)-3-(3,4-dihydroxyphenyl)acrylamide] | 10 | 41.09 ± 2.76 | 25.55 ± 2.47 | 33.36 ± 2.73 | 14.04% and 14.04 ± 0.95% | 14.04 | 2.47 | 2.07 | %G0–G1 (Caco-2 cells [1]; listed as CA12): 41.09%; %G2/M (Caco-2 cells [1]; listed as CA12): 25.55%; %S (Caco-2 cells [1]; listed as CA12): 33.36%; Late Apoptosis (Caco-2 cells [2]; listed as CA12): 9.5; MMP2 Fold Change (MMP-2): 0.54±0.014 Fold Change; MMP9 Fold Change (MMP-9): 0.30±0.006 Fold Change
COc1ccc(/C=C/C(=O)N2CCN(c3ccccc3)CC2)cc1O [Compound 12, (E)-3-(3-Hydroxy-4-methoxyphenyl)-1-(4-phenylpiperazin-1-yl)prop-2-en-1-one] | 40 | – | – | – | – | – | – | – | –
COc1ccc(NC(=O)/C=C/c2ccc(OC)c(O)c2)cc1 [Compound 13, (E)-3-(3-Hydroxy-4-methoxyphenyl)-N-(4-methoxyphenyl)acrylamide] | 80 | – | – | – | – | – | – | – | –
COc1ccc(NC(=O)/C=C/c2ccc(O)c(OC)c2)cc1 [Compound 16, (E)-3-(4-Hydroxy-3-methoxyphenyl)-N-(4-methoxyphenyl)acrylamide] | 80 | – | – | – | – | – | – | – | –
COc1ccc(/C=C/C(=O)Nc2ccccc2N)cc1O [Compound 20, (E)-N-(2-Aminophenyl)-3-(3-hydroxy-4-methoxyphenyl)acrylamide] | – | 39.12 ± 2.58 | 26.84 ± 2.34 | 34.04 ± 2.69 | 8.62 ± 0.69% | 8.62 | 2.19 | 1.24 | apoptotic population compared to the parent compound (Caco-2 cells [1]; Caco-2, in words, versus parent 1 or 2): non-significant decrease; %G0–G1 (Caco-2 cells [1]; listed as FA12): 39.12%; %G2/M (Caco-2 cells [1]; listed as FA12): 26.84%; %S (Caco-2 cells [1]; listed as FA12): 34.04%; %Pre-G1 (Caco-2 cells [1]; listed as FA12): 8.62%; Late Apoptosis (Caco-2 cells [2]): 5.19; MMP2 Fold Change (MMP-2): 0.68±0.018 Fold Change; MMP9 Fold Change (MMP-9): 0.45±0.009 Fold Change
COc1cccc2c1C(=O)c1c(O)c3c(c(O)c1C2=O)C[C@@](O)(C(=O)CO)C[C@@H]3O[C@H]1C[C@H](N)[C@H](O)[C@H](C)O1 [Doxorubicin] | – | – | – | – | – | – | – | – | IC50 (μM) ± SD Caco-2 (Caco-2 cancer cell line): 0.17 ± 1.1 µM
(E)-3-(3-Hydroxy-4-methoxyphenyl)-N-(p-tolyl)acrylamide [Compound 14] | – | – | – | – | 16.51% and 16.51 ± 0.63% | 16.51 | 3.99 | 2.26 | IC50 (Caco-2 cancer cell line): 50 µM
